Converted amounts (≈) assume the structure as drawn. The source made the active and inactive calls.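 Rule for the calls: active = compounds whose lowest dose cutting E. coli growth over twofold at 37 C is below a set limit; inactive = the rest.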
Tested on: E. coli growth, OD530, overnight, 37 C
Experiment: E. coli growth inhibition, SAR follow-up, DnaK modulator project, MIC, 37 and 42 C (AID 1503)
[1] = measured here: E. coli MIC at 42 C

Row | SMILES | MIC | MIC [1]
1 | O=C(NCc1ccccc1Br)c1cccs1 | > 4000 µM (inactive) | 
2 | O=C(Nc1ccc2[nH]ccc2c1)c1cccs1 | 400 µM (≈ 96.9 µg/mL) | 400 µM (≈ 96.9 µg/mL)
3 | CC(Cc1ccc(F)cc1)NC(=O)c1cccs1 (configuration not stated) | > 10000 µM (inactive) | > 10000 µM
4 | O=C(NCc1ccccc1F)c1cccs1 | > 4000 µM (inactive) | 
5 | Nc1ccc2c(ccn2C(=O)c2cccs2)c1 | < 4000 µM (inactive) | > 4000 µM

The remaining lines, values ahead:

Row | MIC | MIC [1] | SMILES
6 | > 4000 µM (inactive) |  | Cc1ccc(C(=O)NCc2ccc(Cl)cc2)o1
7 | 250 µM (≈ 65.1 µg/mL) | 250 µM (≈ 65.1 µg/mL) | Cc1ccc(CNC(=O)c2ccc([N+](=O)[O-])o2)cc1
8 | > 4000 µM (inactive) |  | Cc1ccc(C(=O)NCc2ccc(F)cc2)o1

— PubChem BioAssay AID1503 (Sanford-Burnham Center for Chemical Genomics, 2009)
